The test is described as follows: Roundtable assessment of astringency. The format is in vivo. Conditions: RebM 700 ppm, modifier between 0 ppm and about 500 ppm.

Structures are written as SMILES.

From patent publication US20190223483A1, “SENSORY MODIFIER COMPOUNDS” (CARGILL, INCORPORATED, priority 2017, published 2019) come the findings set out here.

Experimental: For other sweetness attributes, the solutions were tested by a panel of at least four individuals that are highly-trained in tasting steviol glycoside solutions. The highly-trained panelists used a roundtable methodology to assess each sweetness attribute. To test each solution, the highly-trained panelists dispensed approximately 2 mL of each solution into their own mouths by transfer pipet, dispersed the solution by moving their tongues, and recorded a value for the particular sweetness attribute being tested. Between tasting solutions, the panelists were able to cleanse their palates with water. For each sweetness attribute, the panelist agreed on a descriptive scale with relative intensities assigned for each sweetness attribute and then recorded the values for each sweetness attribute against this. For example, this roundtable assessment of sweetness linger assigned a scale of 0 to 6 with a score of 0 indicating no sweetness linger and a score of 6 indicating extreme sweetness linger. Roundtable assessment of sweetness linger assigned a scale of 0 to 6 with a score of 0 indicating no sweetness linger and a score of 6 indicating extreme sweetness linger (0=none, 1=trace, 2=slight, 3=moderate, 4=definite, 5=strong, 6=extreme). Roundtable assessment of rounded assigned a scale of 0 to 3 with a score of 0 indicating spikey and a score of 3 indicating desirable rounded (0=none, 1=mostly spikey, some rounded, 2=mostly rounded, some spikey, 3=rounded). Roundtable assessment of mouthfeel assigned a scale of 0 to 2 with a score of 0 indicating water and a score of 2 indicating syrupy (0=water, 1=sucrosey, 2=syrupy). Roundtable assessment of bitterness assigned a scale of 0 to 6 with a score of 0 indicating no bitterness and a score of 6 indicating extreme sweetness linger (0=none, 1=trace, 2=slight, 3=moderate, 4=definite, 5=strong, 6=extreme). Roundtable assessment of off tastes assigned a scale of 0 to 6 with a score of 0 indicating no bitterness and a score of 6 indicating extreme off tastes (0=none, 1=trace, 2=slight, 3=moderate, 4=definite, 5=strong, 6=extreme).
Roundtable assessment of botanical notes assigned a scale of 0 to 5 with a score of 0 indicating no botanical notes and a score of 5 indicating strong (0=none, 1=trace, 2=slight, 3=moderate, 4=definite, 5=strong).
Solutions of steviol glycosides and sensory modifier compound were prepared at increasing ratios of sensory modifier to steviol glycoside by weight. […] The concentration of steviol glycosides was 700 ppm in each solution. The solutions were tested for astringency.

On to `O=C(/C=C/c1ccc(O)c(O)c1)O[C@@H](C(=O)O)[C@@H](OC(=O)/C=C/c1ccc(O)c(O)c1)C(=O)O` [tartaric backbone (cichoric acid), cichoric acid], for which the Astringency entry is “imperceptible”.
